Test results taken from US20230265116A1, “DEGRADATION OF (EGFR) BY CONJUGATION OF EGFR INHIBITORS WITH E3 LIGASE LIGAND AND METHODS OF USE” (BEIGENE, LTD., priority 2020, published 2023).

Assays:
[1] = target: T1, EGFR L858R/T790M/C797S (BaF3-LTC cells) (Homo sapiens, UniProt P00533, C797S/L858R/T790M); assay: EGFR degradation HTRF assay, BaF3-LTC cells; format: cell-based; settings: BaF3-LTC, 16h treatment; for Dmax: maximum percentage of degradation, read-out: LTC Dmax (%); for DC50: read-out: LTC DC50
T1 construct: expressed in transfected cells; host or cells: BaF3
T1 sequence (P00533 25-1210 T790M/C797S/L858R): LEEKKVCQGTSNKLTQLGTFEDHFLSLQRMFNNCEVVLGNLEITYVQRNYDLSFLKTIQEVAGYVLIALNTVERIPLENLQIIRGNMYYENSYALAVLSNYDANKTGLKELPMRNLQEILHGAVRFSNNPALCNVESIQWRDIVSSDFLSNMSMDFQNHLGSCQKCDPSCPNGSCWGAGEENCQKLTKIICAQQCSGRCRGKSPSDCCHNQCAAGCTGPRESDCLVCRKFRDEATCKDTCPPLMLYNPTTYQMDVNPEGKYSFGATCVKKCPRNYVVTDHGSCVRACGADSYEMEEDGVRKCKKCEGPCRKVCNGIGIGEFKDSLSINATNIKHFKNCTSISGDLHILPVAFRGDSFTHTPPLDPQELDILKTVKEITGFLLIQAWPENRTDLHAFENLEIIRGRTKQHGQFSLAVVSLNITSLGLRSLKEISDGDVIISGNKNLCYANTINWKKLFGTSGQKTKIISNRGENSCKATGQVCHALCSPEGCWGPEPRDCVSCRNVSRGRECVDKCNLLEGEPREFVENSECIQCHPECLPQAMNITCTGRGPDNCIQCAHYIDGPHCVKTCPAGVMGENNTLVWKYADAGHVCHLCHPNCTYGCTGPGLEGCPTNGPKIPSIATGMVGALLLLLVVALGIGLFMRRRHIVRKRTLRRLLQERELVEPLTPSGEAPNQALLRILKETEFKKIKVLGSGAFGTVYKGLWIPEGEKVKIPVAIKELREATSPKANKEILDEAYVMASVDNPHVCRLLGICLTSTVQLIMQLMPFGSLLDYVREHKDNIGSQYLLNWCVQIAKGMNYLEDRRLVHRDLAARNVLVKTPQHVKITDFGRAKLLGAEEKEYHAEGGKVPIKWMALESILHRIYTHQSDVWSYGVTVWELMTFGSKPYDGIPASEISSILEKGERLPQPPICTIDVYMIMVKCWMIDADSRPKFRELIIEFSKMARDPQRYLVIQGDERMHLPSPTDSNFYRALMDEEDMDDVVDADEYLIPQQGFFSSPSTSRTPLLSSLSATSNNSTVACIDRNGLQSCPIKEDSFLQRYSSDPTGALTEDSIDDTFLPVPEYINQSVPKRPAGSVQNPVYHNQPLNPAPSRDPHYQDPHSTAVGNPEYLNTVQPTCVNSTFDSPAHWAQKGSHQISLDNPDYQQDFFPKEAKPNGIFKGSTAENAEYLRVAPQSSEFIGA
How it was run: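 Cells treated 16 h at 37 °C, 5% CO2 in medium with 0.2% DMSO; top final concentration 10 uM, 5-fold dilution, 8 doses. Lysates read by HTRF (665/620 nm); degradation % versus DMSO high control, DC50 from four-parameter fit, Dmax as maximal degradation.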

[2] = system: EGFR Del19/T790M/C797S (BaF3-DTC cells); assay: EGFR degradation HTRF assay, BaF3-DTC cells; format: cell-based; settings: 16h treatment; for DTC Dmax (%): maximum percentage of degradation; for DC50: read-out: DTC DC50
Description: BaF3 WT(wild type), BaF3-LTC(L858R/T790M/C797S) and BaF3-DTC(Del19/T790M/C797S) cells are treated with compounds diluted in 0.2% DMSO cell culture medium and incubate for 16h, 37° C., 5% CO2, H1975-#36, H1975-#28, H1975-#23 and HCC827 cells are treated with compounds diluted in 0.2% DMSO cell culture medium on day 2, incubate for 16h, 37° C., 5% CO2.the final concentriation of compounds in all assay is start with 10 uM, 5-fold dilution, total 8 doses were included.
After 16h treatment, add HTRF lysis buffer to each well; seal the plate and incubate 1 hour at room temperature on a plate shaker; Once the cells are lysed, 16 μL of cell lysate are transferred to a PE 384-well HTRF detection plate; 4 μL of pre-mixed HTRF antibodies are added to each well; Cover the plate with a plate sealer, spin 1000 rpm for 1 min, Incubate overnight at room temperature; Read on BMG PheraStar with HTRF protocol (337 nm-665 nm-620 nm).
The inhibition (degradation) percentage of the compound was calculated by the following equation: Inhibition percentage of Compound=100-100×(Signal-low control)/(High control-low control), wherein signal=each test compound group
High control=Cell group with added DMSO and without compound, indicating microplate readings without EGFR degradation;
Dmax is the maximum percentage of inhibition (degradation).
The IC50 (DC50) value of a compound can be obtained by fitting the following equation
Y=Bottom+(TOP−Bottom)/(1+((IC50/X)^hillslope))
Wherein, X and Y are known values, and IC50, Hillslope, Top and Bottom are the parameters obtained by fitting with software. Y is the inhibition percentage (calculated from the equation), X is the concentration of the compound; IC50 is the concentration of the compound when the 50% inhibition is reached. The smaller the IC50 value is, the stronger the inhibitory ability of the compound is. Vice versa, the higher the IC50 value is, the weaker the inhibitory ability of the compound is; Hillslope represents the slope of the fitted curve, generally around 1*; Bottom represents the minimum value of the curve obtained by data fitting, which is generally 0%±20%; Top represents the maximum value of the curve obtained by data fitting, which is generally 100%±20%. The experimental data were fitted by calculating and analyzing with Dotmatics data analysis software.

SMILES	Dmax [1]	DC50 [1]	DTC Dmax (%) [2]	DC50 [2]
COc1cc(N2CCC(N3CCN(CCC4CCN(c5cc(F)c(C6CCC(=O)NC6=O)c(F)c5)CC4)CC3)CC2)c(C)cc1Nc1ncc(Br)c(Nc2ccc3nccnc3c2P(C)(C)=O)n1 (stereo not shown) [Example 215, 3-(4-(4-(2-(4-(1-(4-((5-bromo-4-((5-(dimethylphosphoryl)quinoxalin-6-yl)amino)pyrimidin-2-yl)amino)-5-methoxy-2-methylphenyl)piperidin-4-yl)piperazin-1-yl)ethyl)piperidin-1-yl)-2,6-difluorophenyl)piperidine-2,6-dione]	91.4%	20.5 nM	96.67%	4.91 nM
COc1cc(N2CCC(N3CCN(CCC4CCN(c5cc(F)c(C6CCC(=O)NC6=O)c(F)c5)CC4)CC3=O)CC2)c(C)cc1Nc1ncc(Br)c(Nc2ccc3nccnc3c2P(C)(C)=O)n1 (stereo not shown) [Example 216, 3-(4-(4-(2-(4-(1-(4-((5-bromo-4-((5-(dimethylphosphoryl)quinoxalin-6-yl)amino)pyrimidin-2-yl)amino)-5-methoxy-2-methylphenyl)piperidin-4-yl)-3-oxopiperazin-1-yl)ethyl)piperidin-1-yl)-2,6-difluorophenyl)piperidine-2,6-dione]	87.7%	23.3 nM	93.59%	5.56 nM
COc1cc(N2CCC(N3CCN(CCC4CCN(c5cc(F)c(C6CCC(=O)NC6=O)c(F)c5)CC4)CC3)CC2)c(C)cc1Nc1ncc(Br)c(Nc2ccc3nc(C)ccc3c2P(C)(C)=O)n1 (stereo not shown) [Example 217, 3-(4-(4-(2-(4-(1-(4-((5-bromo-4-((5-(dimethylphosphoryl)-2-methylquinolin-6-yl)amino)pyrimidin-2-yl)amino)-5-methoxy-2-methylphenyl)piperidin-4-yl)piperazin-1-yl)ethyl)piperidin-1-yl)-2,6-difluorophenyl)piperidine-2,6-dione]	89.6%	86.8 nM	90.75%	29.7 nM
COc1cc(N2CCC(N3CCN(CCC4CCN(c5cc(F)c(C6CCC(=O)NC6=O)c(F)c5)CC4)CC3)CC2)ccc1Nc1ncc(Br)c(Nc2ccc3nc(C)ccc3c2P(C)(C)=O)n1 (stereo not shown) [Example 218, 3-(4-(4-(2-(4-(1-(4-((5-bromo-4-((5-(dimethylphosphoryl)-2-methylquinolin-6-yl)amino)pyrimidin-2-yl)amino)-3-methoxyphenyl)piperidin-4-yl)piperazin-1-yl)ethyl)piperidin-1-yl)-2,6-difluorophenyl)piperidine-2,6-dione]	87.3%	9.19 nM	97.83%	2.9 nM
CCc1cc(Nc2ncc(Br)c(Nc3ccc4nccnc4c3P(C)(C)=O)n2)c(OC)cc1N1CCC(N2CCN(C(=O)[C@H]3CCN(c4ccc(C5CCC(=O)NC5=O)cc4)C3)CC2)CC1 (stereo partly drawn) [Example 223, 3-(4-((S)-3-(4-(1-(4-((5-bromo-4-((5-(dimethylphosphoryl)quinoxalin-6-yl)amino)pyrimidin-2-yl)amino)-2-ethyl-5-methoxyphenyl)piperidin-4-yl)piperazine-1-carbonyl)pyrrolidin-1-yl)phenyl)piperidine-2,6-dione]	82.9%	31.3 nM	86.61%	8.56 nM
CCc1cc(Nc2ncc(Br)c(Nc3ccc4nccnc4c3P(C)(C)=O)n2)c(OC)cc1N1CCC(N2CCN(C(=O)[C@@H]3CCN(c4ccc(C5CCC(=O)NC5=O)cc4)C3)CC2)CC1 (stereo partly drawn) [Example 224, 3-(4-((R)-3-(4-(1-(4-((5-bromo-4-((5-(dimethylphosphoryl)quinoxalin-6-yl)amino)pyrimidin-2-yl)amino)-2-ethyl-5-methoxyphenyl)piperidin-4-yl)piperazine-1-carbonyl)pyrrolidin-1-yl)phenyl)piperidine-2,6-dione]	81.5%	37.2 nM	87.47%	8.41 nM
CCc1cc(Nc2ncc(Br)c(Nc3ccc4nccnc4c3P(C)(C)=O)n2)c(OC)cc1N1CCC(N2CCN(C(=O)[C@H]3CCN(c4cccc(C5CCC(=O)NC5=O)c4)C3)CC2)CC1 (stereo partly drawn) [Example 225, 3-(3-((S)-3-(4-(1-(4-((5-bromo-4-((5-(dimethylphosphoryl)quinoxalin-6-yl)amino)pyrimidin-2-yl)amino)-2-ethyl-5-methoxyphenyl)piperidin-4-yl)piperazine-1-carbonyl)pyrrolidin-1-yl)phenyl)piperidine-2,6-dione]	79.2%	48.9 nM	89.48%	6.98 nM
CCc1cc(Nc2ncc(Br)c(Nc3ccc4nccnc4c3P(C)(C)=O)n2)c(OC)cc1N1CCC(N2CCN(CC3CN(c4cccc(C5CCC(=O)NC5=O)c4)C3)CC2)CC1 (stereo not shown) [Example 226, 3-(3-(3-((4-(1-(4-((5-bromo-4-((5-(dimethylphosphoryl)quinoxalin-6-yl)amino)pyrimidin-2-yl)amino)-2-ethyl-5-methoxyphenyl)piperidin-4-yl)piperazin-1-yl)methyl)azetidin-1-yl)phenyl)piperidine-2,6-dione]	66.9%	31.4 nM	77.91%	26.6 nM
CCc1cc(Nc2ncc(Br)c(Nc3ccc4nccnc4c3P(C)(C)=O)n2)c(OC)cc1N1CCC(N2CCN(C(=O)C3CN(c4ccc5c(c4)C(=O)N(C4CCC(=O)NC4=O)C5)C3)CC2)CC1 (stereo not shown) [Example 227, 3-(6-(3-(4-(1-(4-((5-bromo-4-((5-(dimethylphosphoryl)quinoxalin-6-yl)amino)pyrimidin-2-yl)amino)-2-ethyl-5-methoxyphenyl)piperidin-4-yl)piperazine-1-carbonyl)azetidin-1-yl)-1-oxoisoindolin-2-yl)piperidine-2,6-dione]	91.8%	10.3 nM	90.5%	4.87 nM
CCc1cc(Nc2ncc(Br)c(Nc3ccc4nccnc4c3P(C)(C)=O)n2)c(OC)cc1N1CCC(N2CCN(C(=O)C3CN(c4ccc(C5CCC(=O)NC5=O)c(F)c4)C3)CC2)CC1 (stereo not shown) [Example 228, 3-(4-(3-(4-(1-(4-((5-bromo-4-((5-(dimethylphosphoryl)quinoxalin-6-yl)amino)pyrimidin-2-yl)amino)-2-ethyl-5-methoxyphenyl)piperidin-4-yl)piperazine-1-carbonyl)azetidin-1-yl)-2-fluorophenyl)piperidine-2,6-dione]	81.8%	19.8 nM	79.14%	3.49 nM
CCc1cc(Nc2ncc(Br)c(Nc3ccc4nccnc4c3P(C)(C)=O)n2)c(OC)cc1N1CCC(N2CCN(C(=O)C3CN(c4cccc(C5CCC(=O)NC5=O)c4)C3)CC2)CC1 (stereo not shown) [Example 230, 3-(3-(3-(4-(1-(4-((5-bromo-4-((5-(dimethylphosphoryl)quinoxalin-6-yl)amino)pyrimidin-2-yl)amino)-2-ethyl-5-methoxyphenyl)piperidin-4-yl)piperazine-1-carbonyl)azetidin-1-yl)phenyl)piperidine-2,6-dione]	72%	19.8 nM	73.42%	9.11 nM
CCc1cc(Nc2ncc(Br)c(Nc3ccc4nccnc4c3P(C)(C)=O)n2)c(OC)cc1N1CCC(N2CCN(CC3CN(c4ccc(C5CCC(=O)NC5=O)cc4)C3)CC2)CC1 (stereo not shown) [Example 231, 3-(4-(3-((4-(1-(4-((5-bromo-4-((5-(dimethylphosphoryl)quinoxalin-6-yl)amino)pyrimidin-2-yl)amino)-2-ethyl-5-methoxyphenyl)piperidin-4-yl)piperazin-1-yl)methyl)azetidin-1-yl)phenyl)piperidine-2,6-dione]	77.6%	25.3 nM	76.04%	8.28 nM
CCc1cc(Nc2ncc(Br)c(Nc3ccc4nccnc4c3P(C)(C)=O)n2)c(OC)cc1N1CCC(N2CCN(C[C@H]3CCN(c4ccc5c(c4)C(=O)N(C4CCC(=O)NC4=O)C5=O)C3)CC2)CC1 (stereo partly drawn) [Example 232, 5-((R)-3-((4-(1-(4-((5-bromo-4-((5-(dimethylphosphoryl)quinoxalin-6-yl)amino)pyrimidin-2-yl)amino)-2-ethyl-5-methoxyphenyl)piperidin-4-yl)piperazin-1-yl)methyl)pyrrolidin-1-yl)-2-(2,6-dioxopiperidin-3-yl)isoindoline-1,3-dione]	86.9%	43 nM	86.38%	23.8 nM
